# Experimental data taken from patent US7709613B2, “Rhenium-188 and rhenium-186 for treatment of tumors expressing a Na+/I− symporter” (priority 2002, dated 2010).
# Like-named read-outs stand apart in the source and are kept apart here.
# Legend:
# hNIS = target: T1, hNIS (Homo sapiens, UniProt Q92911); assay: Comparative 125I and 188Re uptake into hNIS-transfected and non-transfected MDCK cells; type: cell-based; settings: for Km: hNIS-transfected MDCK cells, Lineweaver-Burk plot, 4-min initial rates, read-out: Km for influx
# T1 construct: expressed in transfected cells; host or cells: MDCK (Madin-Darby canine kidney) cells, hNIS in pcDNA 3.1
# T1 sequence (Q92911 1-643): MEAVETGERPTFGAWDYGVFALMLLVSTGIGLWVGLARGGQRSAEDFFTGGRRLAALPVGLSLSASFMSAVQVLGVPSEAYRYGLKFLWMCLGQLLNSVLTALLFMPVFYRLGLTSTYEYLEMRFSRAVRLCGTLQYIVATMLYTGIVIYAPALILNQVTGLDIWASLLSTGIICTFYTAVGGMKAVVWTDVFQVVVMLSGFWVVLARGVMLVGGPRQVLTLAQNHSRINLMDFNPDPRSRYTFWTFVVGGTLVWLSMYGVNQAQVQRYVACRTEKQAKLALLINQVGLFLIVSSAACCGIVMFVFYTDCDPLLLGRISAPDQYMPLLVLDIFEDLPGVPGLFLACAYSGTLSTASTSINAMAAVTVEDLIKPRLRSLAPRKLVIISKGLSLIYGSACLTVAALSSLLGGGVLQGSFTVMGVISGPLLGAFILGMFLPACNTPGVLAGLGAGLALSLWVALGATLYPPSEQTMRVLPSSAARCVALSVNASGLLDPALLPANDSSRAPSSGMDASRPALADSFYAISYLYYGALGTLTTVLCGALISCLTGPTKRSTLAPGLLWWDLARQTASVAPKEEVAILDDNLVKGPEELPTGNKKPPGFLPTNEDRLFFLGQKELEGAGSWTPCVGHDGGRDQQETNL
# Protocol: Comparative ^125I and ^188Re uptake into the NIS-expressing cells. Both concentration dependence and kinetic experiments for ^125I and ^188ReO4^− in hNIS-transfected (hNIS in pcDNA 3.1 plasmid) and non-transfected MDCK (Madin-Darby canine kidney) cells were performed using the methods of Weiss et al. and Dai et al.. […] A 4-min time point was used to estimate initial rates for kinetic experiments. Saturation kinetics were analyzed by Lineweaver-Burk plot.
# [1] = tested on: NIS-expressing xenografted mammary adenocarcinoma (NAFA cells); type: in vivo, nude mice
# Protocol: Animal model. […] Since erbB-2 (Neu) is one of the better known human breast cancer oncogenes, a mammary tumor cell line (NAFA) induced by oncogenic Neu was used. The NAFA cell line derived from the MMTV-NeuT mouse was grown in DMEM with 10% fetal bovine serum and 1% penicillin-streptomycin. […] Female nude mice (Charles River Laboratories) 4-6 weeks old were injected SC with 10^6 NAFA cells into the left groin.
# Biodistribution. […] In order to block mg-NIS in expressing organs and tumor, control animals were injected with the above mixture of isotopes combined with 2 mg NaClO4. […] The % ID/g for each organ was determined, and RIs (% ID/g in the tumor divided by the % ID/g in normal tissue) were calculated.
# [2] = Dosimetry calculations (MIRDOSE 3) for 70-kg reference adult bearing a 2 g tumor; set-up: species or system human; settings: using S-values for the whole body
# Protocol: Dosimetry. The self-doses to major organs and tumors from ^131I and ^188Re in humans were calculated using MIRDOSE 3 software (ORNL) applying S-values for a 70-kg reference adult. “S” is an absorbed dose per unit cumulated activity. S-values are tabulated in the Medical Internal Radiation Dose pamphlet #11 published by the Society of Nuclear Medicine. The following formula [26] was used for conversion of time-activity data in mice into time-activity data in humans: % ID human organ=% ID/ganimal organ·(body massaninal/body masshuman)·organ masshuman.
# It should be noted that dosimetry calculations in humans were performed with the sole purpose of comparing the therapeutic efficacy and potential damage to the stomach and thyroid from ^131I and ^188Re beta-particles, thus only “self” doses were calculated. […] However, in more comprehensive dosimetry calculations organ cross-irradiation from highly penetrative ^131I gamma-rays should be taken into consideration.
# [3] = Safe dose study in healthy mice, 80 days observation, thyroid and stomach histology; type: in vivo; settings: 1.5 mCi
# Protocol: To establish the safe dose of ^188ReO4^− to treat the NIS-expressing tumors in mice, healthy mice were treated with 1.5 mCi ^188ReO4^− and observed for 80 days. […] After 80 days the animals were sacrificed, their thyroids and stomachs removed and analyzed histologically. FIGS. 3A-3C present the hematoxylin and eosin stained thyroid tissue from a control mouse, a mouse treated with 1.5 mCi ^188ReO4^−, and a mouse treated with 50 μCi ^131I^−. FIGS. 3D-3E show the stomachs from the control mouse and the mouse treated with 1.5 mCi ^188ReO4^−, respectively.
# [4] = tested on: NAFA cells-xenografted tumors; assay: Treatment of nude mice bearing NAFA cells-xenografted tumors; type: in vivo; settings: 1.5 mCi followed by 2nd dose of 1.5 mCi one week later; vs untreated tumors
# Protocol: Animal model. To investigate the binding of ^125I and ^188Re to NIS-expressing mammary tumors, a xenografted mammary adenocarcinoma model in nude mice was used. Since erbB-2 (Neu) is one of the better known human breast cancer oncogenes, a mammary tumor cell line (NAFA) induced by oncogenic Neu was used. The NAFA cell line derived from the MMTV-NeuT mouse was grown in DMEM with 10% fetal bovine serum and 1% penicillin-streptomycin. […] Female nude mice (Charles River Laboratories) 4-6 weeks old were injected SC with 10^6 NAFA cells into the left groin. Ten days after injection the tumors reached 0.5-0.7 cm in diameter.
# When the tumors reached 0.5-0.7 cm in diameter, the animals were treated with 1.5 mCi ^188ReO4^− followed by a 2nd dose of 1.5 mCi ^188ReO4^− one week later.
# NAFA-cells xenografts = assay: Histological analysis for apoptosis (Apoptag Plus kit) of NAFA-cells xenografts; type: in vivo, nude mice; settings: 2×1.5 mCi, day 35 post-treatment; vs control tumors
# Description: At the completion of the experimental treatment with ^188Re-perrhenate, the animals were sacrificed, their tumors removed, fixed in buffered formaline, cut and analyzed for apoptosis using an Apoptag Plus® kit. Briefly, 3′-OH termini of DNA fragments, which are the hallmark of apoptosis, were labeled with digoxigenin-modified nucleotides by terminal deoxynucleotidyl transferase (TdT). […] The labeled DNA was detected using an anti-digoxigenin antibody, and the detection was performed using a chromagen. As a result the apoptotic cells were stained brown. The results are shown in FIGS. 5A-5B, where apoptotic cells appear lightly stained in the black-and-white image. […] This observation is consistent with the fact that particulate ionizing radiation is known to cause cell death through both apoptotic and necrotic pathways.
# rat thyroid NIS = target: T2, rat thyroid NIS (Rattus norvegicus, UniProt Q63008); settings: ref. [44], cited from earlier work; for Km: actively transported ions
# T2 sequence (Q63008 1-618): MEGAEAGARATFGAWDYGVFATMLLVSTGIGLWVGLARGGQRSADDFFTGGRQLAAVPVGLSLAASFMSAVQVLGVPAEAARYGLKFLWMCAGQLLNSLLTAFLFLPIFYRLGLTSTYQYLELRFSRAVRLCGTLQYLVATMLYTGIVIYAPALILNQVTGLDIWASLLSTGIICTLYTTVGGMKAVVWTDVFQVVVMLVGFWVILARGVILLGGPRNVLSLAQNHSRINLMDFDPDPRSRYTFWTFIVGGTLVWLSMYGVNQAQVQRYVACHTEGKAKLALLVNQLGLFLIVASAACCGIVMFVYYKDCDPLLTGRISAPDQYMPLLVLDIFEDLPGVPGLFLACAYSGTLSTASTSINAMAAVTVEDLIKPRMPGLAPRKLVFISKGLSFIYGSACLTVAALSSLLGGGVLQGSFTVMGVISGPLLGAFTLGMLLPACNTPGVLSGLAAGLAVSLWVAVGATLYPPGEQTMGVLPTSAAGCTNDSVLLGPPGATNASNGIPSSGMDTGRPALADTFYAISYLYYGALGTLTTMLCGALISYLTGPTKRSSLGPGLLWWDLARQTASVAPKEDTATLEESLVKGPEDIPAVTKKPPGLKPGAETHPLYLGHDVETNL
# FRTL-5 cells = settings: read-out: Km for ^125I^− influx; cited from earlier work
# [5] = ref. [23]; cited from earlier work
smiles,measurement,setting,value
"[Na+].[O]=[188Re](=[O])(=[O])[O-] [^188ReO4^−, Na perrhenate Na^188ReO4]",Concentration gradient in hNIS-transfected in comparison to non-transfected cells,hNIS; MDCK cells,14 fold
same,Tumor to normal organ ratio (RI),"[1]; 20 min, blood",0.41
same,Tumor to normal organ ratio (RI),"[1]; 20 min, kidneys",1.22
same,Tumor to normal organ ratio (RI),"[1]; 20 min, liver",1.27
same,Tumor to normal organ ratio (RI),"[1]; 20 min, muscle",8.21
same,Tumor to normal organ ratio (RI),"[1]; 20 min, salivary glands",1.46
same,Tumor to normal organ ratio (RI),"[1]; 20 min, spleen",1.39
same,Tumor to normal organ ratio (RI),"[1]; 20 min, stomach",0.10
same,Tumor to normal organ ratio (RI),"[1]; 20 min, thyroid",0.52
same,Tumor to normal organ ratio (RI),"[1]; 20 min, tumor",1.00
same,Tumor to normal organ ratio (RI),"[1]; 2 hr, blood",0.54
same,Tumor to normal organ ratio (RI),"[1]; 2 hr, kidneys",1.40
same,Tumor to normal organ ratio (RI),"[1]; 2 hr, liver",1.43
same,Tumor to normal organ ratio (RI),"[1]; 2 hr, muscle",5.22
same,Tumor to normal organ ratio (RI),"[1]; 2 hr, salivary glands",0.54
same,Tumor to normal organ ratio (RI),"[1]; 2 hr, spleen",2.99
same,Tumor to normal organ ratio (RI),"[1]; 2 hr, stomach",0.08
same,Tumor to normal organ ratio (RI),"[1]; 2 hr, thyroid",0.25
same,Tumor to normal organ ratio (RI),"[1]; 2 hr, tumor",1.00
same,Tumor to normal organ ratio (RI),"[1]; 24 hr, blood",1.45
same,Tumor to normal organ ratio (RI),"[1]; 24 hr, kidneys",3.08
same,Tumor to normal organ ratio (RI),"[1]; 24 hr, liver",8.00
same,Tumor to normal organ ratio (RI),"[1]; 24 hr, muscle",12.50
same,Tumor to normal organ ratio (RI),"[1]; 24 hr, salivary glands",2.85
same,Tumor to normal organ ratio (RI),"[1]; 24 hr, spleen",10.00
same,Tumor to normal organ ratio (RI),"[1]; 24 hr, stomach",0.17
same,Tumor to normal organ ratio (RI),"[1]; 24 hr, thyroid",2.00
same,Tumor to normal organ ratio (RI),"[1]; 24 hr, tumor",1.00
same,Whole body dose relative to ^131I^−,[2],~2 times
same,"Damage to normal NIS-containing structures (thyroid, stomach histology)","[3]; 80 days, hematoxylin and eosin",absence of damage
same,Weight loss or gastrointestinal toxicity,[3]; observed for 80 days,No weight loss or other gastrointestinal toxicity
same,Tumor growth,[4],Tumor growth stabilization
same,Apoptotic cells in tumors,NAFA-cells xenografts,significantly higher number of apoptotic cells
[O-][Cl+2]([O-])O [ClO3^−],Km,rat thyroid NIS,277 µM
"[I-].[Na+] [^125I^−, sodium iodide, reference compound]",Km,hNIS,26.1 µM
same,Km,FRTL-5 cells,30 µM
"[Na+].[O]=[Re](=[O])(=[O])[O-] [^188ReO4^−, Na perrhenate Na^188ReO4]",Km,hNIS,12.6 µM
"[O-][Cl+3]([O-])([O-])O [ClO4^−, Na perchlorate, reference compound]",Effect of co-administered blocking agent on uptake of both isotopes by NIS-expressing organs,"[1]; 2 mg NaClO4 co-injected, all 3 time points","significantly decreased uptake of both isotopes by the stomach, salivary glands and thyroid"
[131IH] [^131I^−],"Actual dose to the thyroid, due to iodine organification",[5],1300 rad/mCi
same,Whole body dose,[5],0.71 rad/mCi
O=[N+]([O-])O [NO3^−],Km,rat thyroid NIS,739 µM
[O]=[Re](=[O])(=[O])[O-] [ReO4^−],Blocking of NIS,rat thyroid NIS,potent blocking agent for NIS
